Measured values as given in patent US20260166084A1, “NOVEL DRUG-INDUCIBLE DEGRADATION TAGS” (THE INSTITUTE OF CANCER RESEARCH: ROYAL CANCER HOSPITAL, priority 2022, published 2026).
“Also recorded” adds a separate entry of the source.

What was measured:
[1] = tested on: degron containing domains (DCDs); assay: Degradation matrix of DCD tags with IMiD/CELMoD panel by flow cytometry; type: cell-based; details: panel of IMiD/CELMoD small molecules, FIG. 1
Source text: FIG. 1: Experimental evaluation of the DCD tags. (a) Heat map summary of the degradation matrix data of all the DCDs tested in flow cytometry experiments. Normalized values were represented in the Log 2 Fold Change relative to the DMSO control. […] (b) Representation of iTAG1-DCD23 (60 aa). The 2 Cys and 2 His from the C2H2 zinc finger motif are highlighted in light grey. The crucial Glycine in the b-hairpin loop degron is highlighted in bold dark grey.
To address the limitations of the currently available protein modulation tools, the inventors developed a novel and robust system for targeted protein degradation by exploiting the fusion of an IMiD/CeLMOD recognition sequence to a protein of interest. […] This 60 amino acid sequence is referred to as iTAG1 (DCD23) herein.
Construct expression was induced by treating cells with 1 μg/ml DOX for 24 h. The cells were treated with IMiDs/CELMoDs at concentrations and time-points indicated for each experimental setting. Cells were collected, on ice, in sterile 5 ml polystyrene round-bottom tubes. DAPI (4′,6-diamidino-2-phenylindole; ThermoFisher Scientific) was added to the cell suspension at a ratio of 1:1000, as a marker for cell viability. The EGFP signal was measured on the BD LSR II flow cytometer (BD Biosciences). Further processing of the results was performed using FlowJo 10 Software (FlowJo).

[2] = tested on: iTAG2 and DCD23-tagged chimeric antigen receptor (TE9-28-Z); assay: IMiD induced degradation of tagged CAR in transduced Jurkat cells; type: cell-based, human; details: for time of drug treatment at which maximal reduction of surface expression is detectable: lenalidomide, pomalidomide, iberdomide
Method: (§1) CAR expression in PBMC-derived T cells following degradation with 10, 1, 0.1, 0.01, 0.001 or 0 uM iberdomide after 24 hours, was assessed by flow cytometry. To assess CAR functionality+/−degrader tag, transduced T cells were cultured 24 hours with SUPT1+/−B7H3 at a 1:1 ratio. Supernatant was harvested, and IL-2 and IFNγ levels determined by ELISA.
(§2) CAR surface expression for transduction efficiency and degradation experiments in primary cells and cell lines was quantified using his-tagged B7H3 protein in combination with anti his-tagged fluorescent antibody (J095G45, BioLegend), and directly fluorescently labelled anti CD34 antibody (QBEnd10, R&D), using LSR2 cytometer. Analysis used Flo-Jo software.

[3] = tested on: SupT1 cells transduced to express human B7H3; assay: CAR functionality: cytokine ELISA after co-culture with SupT1-B7H3 targets; type: cell-based; details: primary human T cells
Source text: To evaluate whether the brighter CAR expression of iTAG2 tagged CAR compared with DCD23-tagged CAR translated into greater effector function, the respective CAR-T populations from the two independent donors were co-cultured overnight with human SupT1 leukaemia target cells isogenic for the target antigen B7H3. Wild type SupT1 have no detectable B7H3 expression. Following overnight culture of T cells with the targets, culture supernatant was harvested and evaluated for inflammatory cytokines interferon gamma and Interleukin-2 by ELISA (FIG. 9).
as §1

HMEC cells = assay: Nuclear localisation by immunofluorescence in HMEC; type: cell-based, human; details: fluorescence microscopy, FIG. 3b and 13
Method: To determine localisation of “superdegron” which has a degree of homology with iTAG1, the inventors cloned superdegron into the expression vector to replace iTAG1 as the degron fused with GFP.
HMEC cells were seeded in glass bottom 96-well plates (Perkin Elmer) at a 1000 cells/well and treated with 1 μg/ml DOX for 24 h to induce construct. Cells were fixed using 4% paraformaldehyde in PBS solution for 15 min at 37° C. and permeabilised with 0.05% Titon-X-100 detergent for 10 min at room temperature. Prior to proceeding to cell imaging, the cells were incubated for a min with 1 μg/ml DAPI (ThermoFisher Scientific) to stain the cell nuclei. Cells were visualised on the Zeiss Axio Vert.A1 FL-LED inverted epifluorescence microscope (Zeiss) and images were captured using the ZEN Blue software (Zeiss).

[4] = tested on: anti-B7H3 chimeric antigen receptor (TE9); assay: Cell surface expression of tagged CAR in transduced Jurkat and 293T cells by flow cytometry; type: cell-based, human; details: for cell surface expression of tagged CAR relative to CD34 marker: transduced 293T and Jurkat cells, FIG. 6; for surface expression of tagged CARs: transduced Jurkat cells, 41BB and CD28 versions of TE9 CAR, FIG. 10
Method: Initial experiments evaluated expression and degradation in human Jurat T cell leukaemia cells or human 293T cells, which were stably transduced with untagged, iTAG1(DCD23)-tagged, and iTAG2-tagged anti-B7H3 CAR-T cells. Here the relative expression of the CAR and the CD34 marker gene are determined by direct staining and evaluation by flow cytometry.
Jurkat and 293T cell lines were grown in DMEM with 10% fetal calf serum and transduced with constructs containing CAR+/−degrader tag. Transduction efficiency was analysed 72 hours post transduction by flow cytometry, staining for the CD34 epitope encoded by the RQR8 gene.
as §2

CRBN/DDB1 complex = target: T1, CRBN/DDB1 complex (Homo sapiens, UniProt Q96SW2); assay: Size exclusion chromatography of CRBN/DDB1 and iTAG2 with or without iberdomide; type: binding; details: 15 μM CRBN/DDB1, 50 μM iTAG2, 100 μM iberdomide, FIG. 14
T1 construct: made in house
T1 sequence (Q96SW2 whole entry, one chain of several): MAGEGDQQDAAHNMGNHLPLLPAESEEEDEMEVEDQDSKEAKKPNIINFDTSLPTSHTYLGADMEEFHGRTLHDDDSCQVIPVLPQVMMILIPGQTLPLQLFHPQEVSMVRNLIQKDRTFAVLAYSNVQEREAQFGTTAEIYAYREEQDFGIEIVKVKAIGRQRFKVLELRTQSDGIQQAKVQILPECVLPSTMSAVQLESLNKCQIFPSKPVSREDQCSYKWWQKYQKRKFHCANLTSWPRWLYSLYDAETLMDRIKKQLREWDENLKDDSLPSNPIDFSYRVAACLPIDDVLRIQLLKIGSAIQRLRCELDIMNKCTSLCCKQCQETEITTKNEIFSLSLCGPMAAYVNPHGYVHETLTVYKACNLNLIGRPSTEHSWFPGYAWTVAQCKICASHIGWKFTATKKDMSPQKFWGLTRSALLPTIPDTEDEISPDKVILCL
T1 sequence (Q16531 2-1140 partner, one chain of several): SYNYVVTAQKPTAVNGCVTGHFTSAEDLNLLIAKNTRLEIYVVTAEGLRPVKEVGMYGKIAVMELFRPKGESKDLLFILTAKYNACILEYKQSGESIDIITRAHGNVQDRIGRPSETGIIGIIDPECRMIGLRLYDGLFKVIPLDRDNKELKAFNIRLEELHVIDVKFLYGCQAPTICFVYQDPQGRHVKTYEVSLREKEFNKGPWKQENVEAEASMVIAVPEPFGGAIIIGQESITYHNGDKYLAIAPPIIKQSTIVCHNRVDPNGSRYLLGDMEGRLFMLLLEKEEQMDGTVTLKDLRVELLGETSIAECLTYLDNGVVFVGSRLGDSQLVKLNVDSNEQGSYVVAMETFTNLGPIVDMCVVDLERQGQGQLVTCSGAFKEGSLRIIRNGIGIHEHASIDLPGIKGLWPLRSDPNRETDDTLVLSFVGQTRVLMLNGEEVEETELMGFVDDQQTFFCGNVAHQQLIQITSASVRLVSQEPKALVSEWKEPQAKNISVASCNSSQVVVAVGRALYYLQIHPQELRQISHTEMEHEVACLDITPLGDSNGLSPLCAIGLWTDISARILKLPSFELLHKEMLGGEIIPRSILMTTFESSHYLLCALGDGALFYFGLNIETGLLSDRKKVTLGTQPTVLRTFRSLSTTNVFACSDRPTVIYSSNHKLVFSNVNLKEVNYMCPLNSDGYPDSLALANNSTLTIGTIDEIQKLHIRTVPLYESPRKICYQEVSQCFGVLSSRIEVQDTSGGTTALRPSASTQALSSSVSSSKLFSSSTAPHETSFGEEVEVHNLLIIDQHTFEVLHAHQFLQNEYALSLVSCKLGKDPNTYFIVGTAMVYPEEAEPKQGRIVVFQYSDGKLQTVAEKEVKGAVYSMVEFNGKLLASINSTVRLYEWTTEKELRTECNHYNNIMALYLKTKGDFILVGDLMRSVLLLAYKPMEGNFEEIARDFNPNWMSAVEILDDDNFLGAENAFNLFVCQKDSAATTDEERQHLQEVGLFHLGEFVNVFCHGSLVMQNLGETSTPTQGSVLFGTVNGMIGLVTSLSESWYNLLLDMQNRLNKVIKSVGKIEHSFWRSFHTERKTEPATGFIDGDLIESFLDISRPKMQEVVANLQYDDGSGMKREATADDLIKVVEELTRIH
Source text: Biochemical evidence for IMiD-dependent formation of a direct interaction between iTAG2 and the CRBN/DDB1 complex was generated using size exclusion chromatography (SEC). Purified CRBN/DDB1 protein complex and iTAG2 protein were mixed together and subjected to SEC in the presence or absence of iberdomide, shown in FIG. 14. The SEC peak 1 corresponding to the higher molecular weight species was shifted towards a lower elution time in the presence of iberdomide, with a slight increase in the optical density at 280 nm, which is consistent with the formation of a larger complex in the presence of iberdomide (FIG. 14A). SDS-PAGE analysis of representative fractions of the SEC analysis in the absence of iberdomide confirmed that the SEC peak 1 contains only DDB1 and CRBN proteins, with iTAG2 only present in the SEC peak 2 (FIG. 14B).
SEC was performed using a Superose 6 5/150 GL column (Cytiva Life Sciences) mounted on an Agilent 1260 Infinity II LC System HPLC system. […] 100 μL fractions were collected and samples spanning the elution peaks were analysed by SDS-PAGE on precast NuPAGE 4-12% Bis-Tris gels (Invitrogen) using standard protocols, with SeeBlue Plus2 pre-stained protein standards (Invitrogen) loaded on the first lane of each gel.

TE9-28-Z CAR = assay: IMiD induced degradation and re-expression of tagged CAR in primary human T cells; type: cell-based
Source text: The re-expression of degraded chimeric antigen receptors following removal of the degrader drug is important for the CAR-T cell to be able to toggle between active and resting states, thereby allowing additional therapeutic manipulation and fine-tuning.
To evaluate the general functionality of the TE9-28Z-iTAG2 anti-B7H3 CAR-T construct when expressed from a different viral vector, driven by alternate promoter, the construct was cloned into third generation lentivector pCLL2 backbone and viral supernatant was generated by transient transfection of 293T cells, with virus pseudotyped with VSV-G. Two versions of the TE9-28Z-iTAG2 sequence were evaluated in this format, which were with and without codon optimisation and removal of cloning scars. There are no differences in amino acid sequence of iTAG2 between original (construct 3) and codon optimised (construct 4) versions (FIG. 16 a and b). […] The log reduction in CAR expression as expressed as geometric median fluorescence intensity (gMFI) was highly consistent. […]
PBMC-derived T cells from 2 healthy donor blood cones were cultured following CD56 depletion (day0) which was performed using Miltenyi CD56 depletion beads and magnetic negative selection using LD columns according to manufacturer's instructions. […] Transduction efficiency was assessed 4 days post transduction by flow cytometry staining for RQR8 and CAR expression.
CAR expression in PBMC-derived T cells following degradation with 10, 1, 0.1, 0.01, 0.001 or 0 uM iberdomide after 24 hours, was assessed by flow cytometry. […] Supernatant was harvested, and IL-2 and IFNγ levels determined by ELISA.
as §2, with “Analysis used Flo-Jo software.” left out

[5] = target: T2, complexes formed between CRBN/DDB1 and IMiDs (Homo sapiens, UniProt Q96SW2); assay: Aiolos peptide-based TR-FRET assay; type: binding; details: IMiDs at 10 μM
T2 construct: 5 nM WT full length CRBN/DDB1 complex; made in house
T2 sequence (Q96SW2 whole entry): as the sequence (Q96SW2 whole entry, one chain of several) above
T2 sequence (Q16531 whole entry partner): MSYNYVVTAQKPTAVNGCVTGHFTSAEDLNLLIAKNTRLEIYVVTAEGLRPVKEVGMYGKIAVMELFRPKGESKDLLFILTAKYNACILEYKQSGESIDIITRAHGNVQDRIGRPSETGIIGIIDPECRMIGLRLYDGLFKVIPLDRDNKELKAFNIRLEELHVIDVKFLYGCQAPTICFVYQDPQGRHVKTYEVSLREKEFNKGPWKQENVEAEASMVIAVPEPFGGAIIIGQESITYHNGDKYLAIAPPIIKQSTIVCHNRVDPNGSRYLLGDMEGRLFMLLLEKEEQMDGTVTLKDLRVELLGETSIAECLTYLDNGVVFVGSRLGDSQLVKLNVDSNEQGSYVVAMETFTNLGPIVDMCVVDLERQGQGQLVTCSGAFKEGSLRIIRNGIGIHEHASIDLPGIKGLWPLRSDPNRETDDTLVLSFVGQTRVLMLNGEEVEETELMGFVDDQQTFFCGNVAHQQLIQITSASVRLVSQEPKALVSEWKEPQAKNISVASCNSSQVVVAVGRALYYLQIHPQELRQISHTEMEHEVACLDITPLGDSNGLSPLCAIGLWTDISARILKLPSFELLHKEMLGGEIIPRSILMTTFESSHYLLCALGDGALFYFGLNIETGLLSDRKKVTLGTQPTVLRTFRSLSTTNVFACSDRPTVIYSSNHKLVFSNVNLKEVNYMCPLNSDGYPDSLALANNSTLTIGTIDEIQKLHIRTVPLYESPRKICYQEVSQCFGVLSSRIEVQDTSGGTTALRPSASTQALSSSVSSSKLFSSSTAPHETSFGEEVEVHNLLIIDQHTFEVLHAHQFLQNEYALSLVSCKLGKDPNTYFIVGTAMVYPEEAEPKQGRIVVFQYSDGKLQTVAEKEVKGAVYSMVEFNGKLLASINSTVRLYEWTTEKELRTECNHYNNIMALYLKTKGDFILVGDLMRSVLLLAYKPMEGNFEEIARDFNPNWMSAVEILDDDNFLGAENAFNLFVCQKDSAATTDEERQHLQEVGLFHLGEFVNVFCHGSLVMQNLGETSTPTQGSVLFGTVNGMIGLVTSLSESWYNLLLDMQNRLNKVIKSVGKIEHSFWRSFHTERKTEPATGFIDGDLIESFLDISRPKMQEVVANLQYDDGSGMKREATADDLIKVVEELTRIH
Method: A schematic representation of the Aiolos peptide-based time resolved-Förster resonance energy transfer (TR-FRET) assay is presented in FIG. 11. […] The results are presented in FIG. 12, including the IC50s calculated from the TR-FRET curves. Overall, the IC50s obtained for iTAG2 were higher than those obtained for iTAG1 with about a 10-fold difference.
All TR-FRET assays were ran in Black 384-well ProxiPlate Plus (Perkin-Elmer, USA), in a buffer containing 20 mM HEPES pH 8.0, 150 mM NaCl, 0.5 mM TCEP, 0.05% Tween 20 and 0.05% BSA, with a final assay volume of 10 μL. An Echo E550 (Beckman Coulter, USA) acoustic liquid dispenser was used to create final concentration ranges from 82 μM down to 2.05 nM for iTAG1 and 27 μM down to 0.68 nM for iTAG2. Final concentrations of 5 nM WT full length CRBN/DDB1 complex, 750 nM Sulfo-Cy5 fluorescent Aiolos-based peptidic probe (Cambridge Research Biochemicals, UK), 750 nM Zn(OAc)^2 and 0.5 nM MAb Anti-6HIS-Terbium cryptate Gold (Cisbio, France) were added with a Tempest liquid handler (Formulatrix, USA). Finally, IMiDs were added to a final concentration of 10 μM with the Echo. Plates were sealed, centrifuged at 200 g for 1 min and stored overnight at 4° C. The TR-FRET signals were read using a PHERAstar FSX plate reader (BMG Labtech, Germany). Final signal was measured as the ratio: […]

[6] = 1:1 with SupT1-B7H3, overnight, ELISA, FIG. 9

“iTAG1: 60 amino acid degron tag based on a chimeric sequence of Ikaros and ZFP91 (PNVLMVHKRSHTGERPLQCEICGFTCRQKGNLLRHIKLHSGEKPFKCHLCNYACRRRDAL)” was tested, and the “drug-induced degradation of DCD tag” value [1] was “induces acute target degradation in vitro and in vivo”, the “time of drug treatment at which maximal reduction of surface expression is detectable” value [2] was 4 h and the “reduced IL-2 secretion compared with iTAG2 fusion protein” value [3, 6] was “approximately 30 fold”. The “reduced effector function compared with iTAG2 fusion protein, interferon gamma secretion” value [3, 6] was “approximately 5 fold”, the “nuclear accumulation / localisation of tagged EGFP/GFP” value (HMEC cells) was “predominant nuclear localisation” and the “cell surface expression of tagged CAR relative to CD34 marker” value [4] was “relatively poor cell surface expression”. The “surface expression of tagged CARs” value [4] was “weak surface expression”.
In the case of “SuperDegron: prototypic zinc finger-based 60 amino acid degron, hybrid of ZFP91 and IKZF3 (WO2019089592) (FNVLMVHKRSHTGERPLQCEICGFTCRQKGNLLRHIKLHTGEKPFKCHLCNYACQRRDAL; SuperDegron) [reference compound]”, the “nuclear accumulation / localisation of tagged EGFP/GFP” value (HMEC cells) is reported as “strong nuclear localisation” and the “surface expression of tagged CARs” value [4] is reported as “weak surface expression”.
For “iTAG2: mutated iTAG1 degron tag, SEQ ID NO: 43, PNVLMVHNESHTGEIPLQCEICGFTCEQAGNLLNHIELHSGEIPFKCHLCNYACRRRDAL (iTAG2)”, the “time of drug treatment at which maximal reduction of surface expression is detectable” value [2] was 4 h, the “complex formation by SEC and SDS-PAGE” value (CRBN/DDB1 complex) was “formation of a complex between DDB1, CRBN and iTAG2 in the presence of iberdomide” and the “CAR re-expression after drug washout” value (TE9-28-Z CAR; washed in PBS, rested 24 h in RPMI1640, FIG. 15) was “re-upregulated after IMiD washout”. For the same molecule, the “antigen-dependent reactivity, superiority over DCD23-tagged CAR-T” value [3] was “approximately 10 fold”, the “effector function compared with untagged CAR” value ([3]; SupT1-B7H3, FIG. 9) was “not significantly different to untagged CAR” and the “nuclear accumulation / localisation of tagged EGFP/GFP” value (HMEC cells) was “abolished nuclear accumulation; also recorded: cytoplasmic localisation”. The “cell surface expression of tagged CAR relative to CD34 marker” value [4] was “superior cell surface expression” and the “surface expression of tagged CARs” value [4] was “same expression as wild type”.
With `O=C1CC[C@H](N2Cc3c(OCc4ccc(CN5CCOCC5)cc4)cccc3C2=O)C(=O)N1` [Iberdomide/ CC220, Iberdomide] the “relative affinity of iTAG1 and iTAG2 for CRBN/DDB1-IMiD complex, order of IMiDs” value [5] was “tightest binding”, the “drug concentration at which nearly maximal downregulation is observed” value ([2]; iTAG1(DCD23) and iTAG2 tagged CAR, FIG. 7) was 0.01 µM and the “potency for degradation among lenalidomide, pomalidomide and iberdomide” value ([2]; tagged CAR, FIG. 7) was “highest potency”. The “optimal IMiD concentration to mediate CAR downregulation upon treatment and re-upregulation upon withdrawal” value (TE9-28-Z CAR; TE9-iTAG2 CAR-T, overnight treatment, wash, 24 h rest, FIG. 15) was 0.01 µM and the “CAR expression after drug treatment” value (TE9-28-Z CAR; primary human T cells, 10 uM iberdomide for 24 hours, FIG. 8) was “near complete loss of expression of the brightly expressed CAR population”.
